According to US7834053B2, “Medicinal compositions improving brain function and method for improving brain function” (priority 2002, dated 2010):
Where “and” joins values, the source holds several entries; their conditions need not be identical. Equal values may be shown once.

Assays:
[1] = system: neuronal death caused by amyloid-beta-protein; details: Society for Neuroscience Abstracts 24, Part 1, 228, 1998; cited from earlier work
ddY male mice = test: Anti-hypoxic activity: survival time of mice in 4% oxygen / 96% nitrogen after oral administration; assay type: in vivo
Protocol: Test compounds A1, A2, A3, B1 and B2 were put to use after dissolution in distilled water. Test compounds C1 and C2 were put to use after suspending them in 0.5% solution of methylcellulose.
The test was carried out according to the method described in Japanese Journal of Pharmacology, Vol. 62, Page 81, 1993.
To one group (6-10 animals) of ddY male mice having an age of 4-5 weeks was orally administered a test compound dissolved in distilled water or suspended in 0.5% methyl cellulose solution. Thirty minutes after the administration, the mice were introduced into a glass container at a volume of 300 mL, and a gaseous mixture composed of 4% of oxygen and 96% of nitrogen was passed though the glass container at a flow rate of 5 L/minute. The period of time from the start of passing the gaseous mixture to the death of the mice was measured. To the control group, distilled water was administered orally.

[2] = reported in the literature; cited from earlier work
nerve growth factor = details: WO96/12717; cited from earlier work
[3] = Society for Neuroscience Abstracts 21, 947, 1995; cited from earlier work
in-brain acetylcholine = details: Society for Neuroscience Abstracts 21, 947, 1995; cited from earlier work
[4] = 10 mg/kg oral, alone, survival time vs control x100, 30 min after administration
[5] = Compound (1) 10 mg/kg oral in combination with Compound B1 (Donepezil) 3 mg/kg
[6] = Compound (1) 10 mg/kg oral in combination with Compound B2 (Tacrine) 10 mg/kg
[7] = 100 mg/kg oral, alone, survival time vs control x100

## CCN(CC)CCOC[C@H](O)c1ccc2sccc2c1.Cl [Compound A1, (R)-1-{benzo[b]thiophen-5-yl}-2-[2-(N,N-diethylamino}ethoxy]ethanol hydrochloride]
[1]
  protecting effect on the neuronal death caused by amyloid-beta-protein: exhibits a protecting effect
ddY male mice; [4]
  Anti-hypoxic activity (%): 137%
ddY male mice; [5]
  Anti-hypoxic activity (%): 211%
ddY male mice; [6]
  Anti-hypoxic activity (%): 172%
[2]
  anti-hypoxic activity: has an anti-hypoxic activity
Nerve growth factor
  effect on the action of nerve growth factor: exhibits an increasing effect
[3]
  anti-amnestic activity: an anti-amnestic activity
in-brain acetylcholine
  release of in-brain acetylcholine: promotes the release of in-brain acetylcholine

## CN(CCO)CCCOCCc1ccc2sccc2c1.CN(CCO)CCCOCCc1ccc2sccc2c1.O=C(O)/C=C/C(=O)O [Compound A2, 2-[[3-(2-benzo[b]thiophen-5-yl-ethoxy)propyl](methyl)amino]-1-ethanol.1/2fumarate]
ddY male mice; [4]
  Anti-hypoxic activity (%): 114%
ddY male mice; [5]
  Anti-hypoxic activity (%): 168%
ddY male mice; [6]
  Anti-hypoxic activity (%): 172%

## O=C(O)/C=C\C(=O)O.OC1CN(CCCOCCc2ccc3sccc3c2)C1 [Compound A3, 1-[3-(2-(1-benzothiophen-5-yl)ethoxy]-propyl]-3-azetidinol-maleate]
ddY male mice; [4]
  Anti-hypoxic activity (%): 111%
ddY male mice; [5]
  Anti-hypoxic activity (%): 190%
ddY male mice; [6]
  Anti-hypoxic activity (%): 149%

## COc1cc2c(cc1OC)C(=O)C(CC1CCN(Cc3ccccc3)CC1)C2 (centres unmarked) [Compound B1, Donepezil]
ddY male mice; 3 mg/kg oral, alone, survival time vs control x100
  Anti-hypoxic activity (%): 119% and 104%

## Cl.Nc1c2c(nc3ccccc13)CCCC2 [Compound B2, 1,2,3,4-tetrahydro-9-acridinamine hydrochloride]
ddY male mice; 10 mg/kg oral, alone, survival time vs control x100, 30 min after administration, hydrochloride
  Anti-hypoxic activity (%): 127% and 107%
[2]
  anti-hypoxic activity: anti-hypoxic activity is shown

## COC1=C(OC)C(=O)C(CCCCCCCCCCO)=C(C)C1=O [Compound C1, Idebenone]
ddY male mice; [7]
  Anti-hypoxic activity (%): 104%
ddY male mice; 300 mg/kg oral, alone, survival time vs control x100
  Anti-hypoxic activity (%): 108%
ddY male mice; Compound (1) 300 mg/kg oral in combination with Compound B1 (Donepezil) 3 mg/kg
  Anti-hypoxic activity (%): 100%

## Cl.FC(F)(F)c1cccc(C2=CCN(CCc3ccc4ccccc4c3)CC2)c1 [Compound C2, SR57746A]
ddY male mice; 30 mg/kg oral, alone, survival time vs control x100
  Anti-hypoxic activity (%): 100%
ddY male mice; [7]
  Anti-hypoxic activity (%): 123%
ddY male mice; Compound (1) 100 mg/kg oral in combination with Compound B1 (Donepezil) 3 mg/kg
  Anti-hypoxic activity (%): 111%
